Results from PubChem BioAssay AID256 (DTP/NCI, 2004).
Several values for one entry are separate records, joined by “and”; a condition that tells them apart may be missing. Equal entries are not always repeated. Toxic doses and inconclusive results are not listed. The calls were made as follows: active = survival T/C of 150% or more; inactive = T/C below 125% in these data.

System: CD2F1 mice, L1210 leukemia ip, survival T/C
Assay: NCI In Vivo Anticancer Drug Screen. Data for tumor model L1210 Leukemia (intraperitoneal) in CD2F1 (CDF1) mice
Conditions: higher = longer survival
Procedure, shortened: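 Transplantable tumor in mice; compound-treated vs vehicle-treated groups. Read-out = treated/control ratio of the measured endpoint.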

[1] = endpoint: mean survival time, dose: 100.0 mg/kg/injection, schedule: Q01DX009 (ip), vehicle: saline
[2] = endpoint: mean survival time, dose: 100.0 mg/kg/injection, schedule: Q01DX009 (ip), vehicle: saline with Tween-80
[3] = endpoint: mean survival time, dose: 200.0 mg/kg/injection, schedule: Q01DX009 (ip), vehicle: saline with Tween-80
[4] = endpoint: mean survival time, dose: 400.0 mg/kg/injection, schedule: Q01DX009 (ip), vehicle: saline with Tween-80
[5] = endpoint: mean survival time, dose: 100.0 mg/kg/injection, schedule: Q04DX003 (ip), vehicle: saline
[6] = endpoint: mean survival time, dose: 200.0 mg/kg/injection, schedule: Q04DX003 (ip), vehicle: saline
[7] = endpoint: mean survival time, dose: 400.0 mg/kg/injection, schedule: Q04DX003 (ip), vehicle: saline
[8] = endpoint: mean survival time, dose: 100.0 mg/kg/injection, schedule: Q04DX003 (ip), vehicle: saline with Tween-80
[9] = endpoint: mean survival time, dose: 200.0 mg/kg/injection, schedule: Q04DX003 (ip), vehicle: saline with Tween-80
[10] = endpoint: mean survival time, dose: 12.5 mg/kg/injection, schedule: Q01DX009 (ip), vehicle: saline
[11] = endpoint: mean survival time, dose: 25.0 mg/kg/injection, schedule: Q01DX009 (ip), vehicle: saline
[12] = endpoint: mean survival time, dose: 12.5 mg/kg/injection, schedule: Q01DX009 (ip), vehicle: acetone
[13] = endpoint: mean survival time, dose: 100.0 mg/kg/injection, schedule: Q04DX003 (ip), vehicle: Klucel (hydroxypropylcellulose) (HPC)
[14] = endpoint: mean survival time, dose: 200.0 mg/kg/injection, schedule: Q04DX003 (ip), vehicle: Klucel (hydroxypropylcellulose) (HPC)
[15] = endpoint: mean survival time, dose: 400.0 mg/kg/injection, schedule: Q04DX003 (ip), vehicle: Klucel (hydroxypropylcellulose) (HPC)

Measured: T/C

O=P([O-])([O-])O.O=P([O-])([O-])O.O=P([O-])([O-])O.O=P([O-])([O-])O.[Na+].[OH3+].[OH3+].[Pt+2].[Pt+2]
inactive: endpoint: median survival time, dose: 10.0 mg/kg/injection, schedule: Q04DX003 (ip), vehicle: water 102 % of control | endpoint: median survival time, dose: 20.0 mg/kg/injection, schedule: Q04DX003 (ip), vehicle: water 91 % of control | endpoint: median survival time, dose: 30.75 mg/kg/injection, schedule: Q04DX003 (ip), vehicle: water 103 % of control | endpoint: median survival time, dose: 40.0 mg/kg/injection, schedule: Q04DX003 (ip), vehicle: water 98 % of control | endpoint: median survival time, dose: 61.5 mg/kg/injection, schedule: Q04DX003 (ip), vehicle: water 102 % of control | endpoint: median survival time, dose: 80.0 mg/kg/injection, schedule: Q04DX003 (ip), vehicle: water 94 % of control | endpoint: median survival time, dose: 123.0 mg/kg/injection, schedule: Q04DX003 (ip), vehicle: water 104 % of control | endpoint: median survival time, dose: 246.0 mg/kg/injection, schedule: Q04DX003 (ip), vehicle: water 110 % of control

O=C(CC(=O)c1ccc(Cl)cc1)Cc1ccc2ccccc2n1
inactive: endpoint: mean survival time, dose: 100.0 mg/kg/injection, schedule: Q04DX002 (ip), vehicle: saline with Tween-80 97 % of control | endpoint: mean survival time, dose: 200.0 mg/kg/injection, schedule: Q04DX002 (ip), vehicle: saline with Tween-80 97 % of control | endpoint: mean survival time, dose: 400.0 mg/kg/injection, schedule: Q04DX002 (ip), vehicle: saline with Tween-80 97 % of control

NC(=O)COS(=O)(=O)O
inactive: [1] 104 % of control | endpoint: mean survival time, dose: 200.0 mg/kg/injection, schedule: Q01DX009 (ip), vehicle: saline 104 % of control | endpoint: mean survival time, dose: 400.0 mg/kg/injection, schedule: Q01DX009 (ip), vehicle: saline 108 % of control

O=C(NC1CCC(CC2CCCCC2)CC1)c1ccccc1 (stereo not drawn)
inactive: [2] 100 % of control | [3] 93 % of control | [4] 114 % of control

O=C1C=CC(=O)c2c(O)ccc(O)c21
inactive: endpoint: mean survival time, dose: 1.0 mg/kg/injection, schedule: Q04DX003 (ip), vehicle: saline with Tween-80 91 % of control | endpoint: mean survival time, dose: 2.0 mg/kg/injection, schedule: Q04DX003 (ip), vehicle: saline with Tween-80 104 % of control | endpoint: mean survival time, dose: 4.0 mg/kg/injection, schedule: Q04DX003 (ip), vehicle: saline with Tween-80 104 % of control

Cc1nc(C)c(C(=O)O)cc1C(=O)O
inactive: [5] 102 % of control | [6] 96 % of control | [7] 98 % of control

CC(=O)c1ccc(N=C=O)cc1
inactive: endpoint: mean survival time, dose: 25.0 mg/kg/injection, schedule: Q01DX001 (ip), vehicle: saline with Tween-80 100 % of control | endpoint: mean survival time, dose: 50.0 mg/kg/injection, schedule: Q01DX001 (ip), vehicle: saline with Tween-80 88 % of control | endpoint: mean survival time, dose: 100.0 mg/kg/injection, schedule: Q01DX001 (ip), vehicle: saline with Tween-80 92 % of control

[CH3][Sb]([CH3])([CH3])([O]C(=O)CF)[O]C(=O)CF
inactive: endpoint: mean survival time, dose: 1.25 mg/kg/injection, schedule: Q01DX009 (ip), vehicle: saline 102 % of control | endpoint: mean survival time, dose: 2.5 mg/kg/injection, schedule: Q01DX009 (ip), vehicle: saline 100 % of control | endpoint: mean survival time, dose: 5.0 mg/kg/injection, schedule: Q01DX009 (ip), vehicle: saline 106 % of control

CC(=O)c1cc2ccccc2c2ccccc12
inactive: endpoint: mean survival time, dose: 50.0 mg/kg/injection, schedule: Q01DX009 (ip), vehicle: saline with Tween-80 89 % of control | [2] 97 % of control | [3] 101 % of control

COC(=O)c1ccc(C)cc1C(=O)OC
inactive: [8] 97 % of control | [9] 92 % of control

O=C(O)c1c(F)cccc1F
inactive: endpoint: mean survival time, dose: 75.0 mg/kg/injection, schedule: Q01DX001 (ip), vehicle: other 103 % of control | endpoint: mean survival time, dose: 150.0 mg/kg/injection, schedule: Q01DX001 (ip), vehicle: other 100 % of control | endpoint: mean survival time, dose: 300.0 mg/kg/injection, schedule: Q01DX001 (ip), vehicle: other 100 % of control

CN(CO)c1nc(N(C)CO)nc(N(C)CO)n1
inactive: [10] 106 % of control and 108 % of control | [11] 105 % of control and 108 % of control | endpoint: mean survival time, dose: 50.0 mg/kg/injection, schedule: Q01DX009 (ip), vehicle: saline 118 % of control and 110 % of control | [1] 117 % of control

CC1=C(C)CS(=O)(=O)C1
inactive: [8] 95 % of control

ON=c1c2ccccc2oc2ccccc12
inactive: endpoint: mean survival time, dose: 100.0 mg/kg/injection, schedule: Q04DX002 (ip), vehicle: Klucel (hydroxypropylcellulose) (HPC) 92 % of control | endpoint: mean survival time, dose: 200.0 mg/kg/injection, schedule: Q04DX002 (ip), vehicle: Klucel (hydroxypropylcellulose) (HPC) 100 % of control

CS(C)=O.[Cl-].[Cl-].[NH-]CC(O)CN(Cc1ccccc1)CC(O)CN.[Pt] (stereo not drawn)
inactive: endpoint: median survival time, dose: 10.0 mg/kg/injection, schedule: Q04DX003 (ip), vehicle: saline 104 % of control | endpoint: median survival time, dose: 20.0 mg/kg/injection, schedule: Q04DX003 (ip), vehicle: saline 109 % of control | endpoint: median survival time, dose: 40.0 mg/kg/injection, schedule: Q04DX003 (ip), vehicle: saline 110 % of control | endpoint: median survival time, dose: 80.0 mg/kg/injection, schedule: Q04DX003 (ip), vehicle: saline 86 % of control

Cc1c(C#N)sc2ccccc12
inactive: endpoint: mean survival time, dose: 50.0 mg/kg/injection, schedule: Q01DX009 (ip), vehicle: other 112 % of control | endpoint: mean survival time, dose: 100.0 mg/kg/injection, schedule: Q01DX009 (ip), vehicle: other 95 % of control | endpoint: mean survival time, dose: 100.0 mg/kg/injection, schedule: Q04DX003 (ip), vehicle: other 109 % of control | endpoint: mean survival time, dose: 200.0 mg/kg/injection, schedule: Q04DX003 (ip), vehicle: other 92 % of control

Cc1nc2ccccc2nc1CBr
inactive: [12] 110 % of control

COc1ccc(NC(=O)Nc2cc(C)on2)c(Cl)c1
inactive: endpoint: mean survival time, dose: 50.0 mg/kg/injection, schedule: Q01DX009 (ip), vehicle: Klucel (hydroxypropylcellulose) (HPC) 91 % of control | endpoint: mean survival time, dose: 100.0 mg/kg/injection, schedule: Q01DX009 (ip), vehicle: Klucel (hydroxypropylcellulose) (HPC) 95 % of control | [13] 110 % of control | endpoint: mean survival time, dose: 200.0 mg/kg/injection, schedule: Q01DX009 (ip), vehicle: Klucel (hydroxypropylcellulose) (HPC) 98 % of control | [14] 106 % of control | [15] 106 % of control

Nc1cc(=O)[nH]c(=S)n1-c1ccccn1
inactive: [5] 101 % of control | [6] 95 % of control | [7] 97 % of control

[Cl][Pt]([Cl])([Cl])[Cl]
inactive: endpoint: mean survival time, dose: 3.13 mg/kg/injection, schedule: Q01DX009 (ip), vehicle: saline 100 % of control | endpoint: mean survival time, dose: 3.13 mg/kg/injection, schedule: Q01DX009 (ip), vehicle: suspension in saline 101 % of control | endpoint: mean survival time, dose: 6.25 mg/kg/injection, schedule: Q01DX009 (ip), vehicle: saline 113 % of control | endpoint: mean survival time, dose: 6.25 mg/kg/injection, schedule: Q01DX009 (ip), vehicle: suspension in saline 107 % of control | [10] 121 % of control | endpoint: mean survival time, dose: 12.5 mg/kg/injection, schedule: Q01DX009 (ip), vehicle: suspension in saline 121 % of control | [11] 113 % of control and 102 % of control | endpoint: mean survival time, dose: 25.0 mg/kg/injection, schedule: Q01DX009 (ip), vehicle: suspension in saline 124 % of control | endpoint: mean survival time, dose: 25.0 mg/kg/injection, schedule: Q04DX003 (ip), vehicle: saline 108 % of control and 107 % of control | endpoint: mean survival time, dose: 50.0 mg/kg/injection, schedule: Q04DX003 (ip), vehicle: saline 97 % of control and 105 % of control

O=[N+]([O-])CC(OCCO)C(Cl)(Cl)Cl (stereo not drawn)
inactive: endpoint: mean survival time, dose: 6.25 mg/kg/injection, schedule: Q01DX009 (ip), vehicle: acetone 97 % of control | [12] 102 % of control | endpoint: mean survival time, dose: 12.5 mg/kg/injection, schedule: Q04DX003 (ip), vehicle: acetone 90 % of control | endpoint: mean survival time, dose: 25.0 mg/kg/injection, schedule: Q01DX009 (ip), vehicle: acetone 97 % of control | endpoint: mean survival time, dose: 25.0 mg/kg/injection, schedule: Q04DX003 (ip), vehicle: acetone 87 % of control

CC(C)NC(=O)CCCCN(C(=O)OCc1ccccc1)N(C)C(=O)OCc1ccccc1
inactive: endpoint: mean survival time, dose: 50.0 mg/kg/injection, schedule: Q04DX003 (ip), vehicle: Klucel (hydroxypropylcellulose) (HPC) 100 % of control | [13] 91 % of control | [14] 106 % of control | [15] 95 % of control

O=S(=O)(O)c1ccc2ncccc2c1
inactive: endpoint: mean survival time, dose: 50.0 mg/kg/injection, schedule: Q04DX002 (ip), vehicle: saline with Tween-80 111 % of control

CC(=O)OC(OC(C)=O)c1ccc([N+](=O)[O-])cc1
inactive: [2] 103 % of control | [8] 105 % of control | [3] 97 % of control | [9] 100 % of control | [4] 97 % of control | endpoint: mean survival time, dose: 400.0 mg/kg/injection, schedule: Q04DX003 (ip), vehicle: saline with Tween-80 92 % of control
